Source: publication PMC3471877 (PLoS ONE, 2012)
Read-outs that look alike come from different tables or passages of the source. Square brackets hold non-standard residues; d marks the D form. Peptide text beside a SMILES is read from it.

Experiments:
[1] = target: T1, recombinant ETA receptor (Homo sapiens, UniProt P25101); assay: cell-based
[2] = target: T2, ET receptors in human primary PASMC (Homo sapiens, UniProt P25101); assay: cell-based; conditions: ET-1 EC50–EC70
[3] = target: T3, recombinant ETB receptor (Homo sapiens, UniProt P24530); conditions: read-out: Kb CHO-ETB; 120 min antagonist pre-incubation; ET-1 EC50–EC70; from IC50 via Cheng-Prusoff; geometric mean n = 3–8
T3 sequence (P24530 27-442): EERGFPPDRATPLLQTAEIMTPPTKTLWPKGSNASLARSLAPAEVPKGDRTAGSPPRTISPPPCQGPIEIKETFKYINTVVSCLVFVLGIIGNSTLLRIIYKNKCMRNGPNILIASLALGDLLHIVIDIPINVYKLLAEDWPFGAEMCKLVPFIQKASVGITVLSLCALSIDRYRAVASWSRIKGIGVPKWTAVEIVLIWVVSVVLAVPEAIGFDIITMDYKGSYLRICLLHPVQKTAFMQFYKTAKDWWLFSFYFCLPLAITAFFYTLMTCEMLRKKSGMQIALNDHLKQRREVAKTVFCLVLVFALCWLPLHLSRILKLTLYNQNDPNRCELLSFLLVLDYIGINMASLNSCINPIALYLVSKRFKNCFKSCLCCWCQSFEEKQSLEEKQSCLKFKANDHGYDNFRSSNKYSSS

[4] = target: T2, ET receptors in human primary PASMC; conditions: for Kb: ET-1 EC50–EC70
[5] = target: T1, recombinant ETA receptor; conditions: read-out: Kb CHO-ETA; 120 min antagonist pre-incubation; ET-1 EC50–EC70; from IC50 via Cheng-Prusoff; geometric mean n = 3–8
[6] = target: T2, ET receptors in human primary PASMC; assay: cell-based; conditions: 120 min pre-incubation
[7] = target: T2, ET receptors in human primary PASMC
[8] = target: T2, ET receptors in human primary PASMC; remark: listed apart in the source
[9] = target: T2, ET receptors in human primary PASMC; conditions: for proportion of receptors dissociated from within the first 30 seconds: estimated assuming 1:1 correlation between signal and receptor occupancy; for ROt1/2: estimated from first calcium response phase at 1 µM ET-1; for proportion of ET-1-induced signal with surmountable mode of antagonism: first calcium response phase, peak, 1 µM ET-1
[10] = target: T2, ET receptors in human primary PASMC; assay: cell-based; conditions: 120 min pre-incubation; remark: listed apart in the source
[11] = test system: P2Y12; conditions: cited from earlier work
[12] = test system: angiotensin II receptor; conditions: cited from earlier work
[13] = target: T3, recombinant ETB receptor; assay: cell-based
[14] = Kb 10 min, 10 min antagonist pre-incubation, geometric mean n = 6
[15] = Kb PASMC, Table 1, 120 min antagonist pre-incubation, from IC50 via Cheng-Prusoff, geometric mean n = 3–8
[16] = Kb1 (first calcium response phase), peak fluorescence, IC50 at 8 nM ET-1 via Cheng-Prusoff
[17] = Kb2 (second sustained calcium response phase), AUC 3–23 min, IC50 at […] ET-1 via Cheng-Prusoff
[18] = Kb 120 min, 120 min antagonist pre-incubation (steady state), geometric mean n = 6
[19] = Kb IP1 accumulation, 20 min ET-1 stimulation, IC50 at […] ET-1 via Cheng-Prusoff, n = 4
[20] = Schild Kb IP1 accumulation, 90 min ET-1 stimulation, Gaddum/Schild regression, n = 3

T2 sequence (P25101 21-427): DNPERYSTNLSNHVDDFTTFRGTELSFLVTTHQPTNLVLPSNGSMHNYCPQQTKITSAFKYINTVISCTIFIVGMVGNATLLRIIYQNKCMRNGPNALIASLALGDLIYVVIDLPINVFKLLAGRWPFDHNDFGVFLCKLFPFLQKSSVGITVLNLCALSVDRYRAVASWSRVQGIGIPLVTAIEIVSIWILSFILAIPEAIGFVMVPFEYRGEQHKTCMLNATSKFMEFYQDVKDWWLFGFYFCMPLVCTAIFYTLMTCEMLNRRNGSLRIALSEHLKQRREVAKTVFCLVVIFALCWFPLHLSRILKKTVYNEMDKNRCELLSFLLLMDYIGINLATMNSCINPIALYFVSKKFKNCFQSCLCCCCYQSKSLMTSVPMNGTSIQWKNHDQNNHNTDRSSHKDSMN
T1 sequence (P25101 21-427): as above

Row | Kb [1] [nM] | Kb [2, 14] [nM] | Kb [2, 15] [nM] | Kb [2, 18] [nM] | mode of antagonism, IP1 accumulation ([8]; 20 min ET-1 stimulation) | mode of antagonism, IP1 accumulation ([8]; 90 min ET-1 stimulation) | proportion of ET-1-induced signal with surmountable mode of antagonism [9] | Kb [13] [µM] | SMILES | other results
1 | 9.4 | 0.61 | 0.62 | – | – | – | – | – | CC(C)C[C@@H]1NC(=O)[C@@H](C(C)C)NC(=O)[C@@H]2CCCN2C(=O)[C@@H](CC(=O)O)NC(=O)[C@@H](Cc2c[nH]c3ccccc23)NC1=O [BQ-123] (cyclo(L[dW][dD]P[dV])) | –
2 | – | – | – | – | – | – | – | – | CCCC[C@@H](NC(=O)[C@@H](Cc1cn(C(=O)OC)c2ccccc12)NC(=O)[C@H](CC(C)(C)C)NC(=O)N1[C@H](C)CCC[C@@H]1C)C(=O)O [BQ-788] | Kb [3]: 0.09 nM; Kb ratio ([4]; Kb 10 min versus 120 min pre-incubation (fold increase in potency)): 1.0; Kb ([4]; read-out: Kb 10 min, 10 min antagonist pre-incubation, geometric mean n = 6): 121 nM; Kb ([4]; read-out: Kb 120 min, 120 min antagonist pre-incubation (steady state), geometric mean n = 6): 117 nM; Kb ([4]; read-out: Kb PASMC, Table 1, 120 min antagonist pre-incubation, from IC50 via Cheng-Prusoff, geometric mean n = 3–8): 117 nM; Kb [5]: 277 nM
3 | – | 0.11 | – | 0.12 | surmountable | surmountable antagonism | ~30% | – | COC(c1ccccc1)(c1ccccc1)[C@H](Oc1nc(C)cc(C)n1)C(=O)O [ambrisentan] | Ki [6, 16]: 0.27 nM; Ki [6, 17]: 0.14 nM; receptor occupancy half-life (ROt1/2) [7]: 40 s; proportion of receptors dissociated from within the first 30 seconds [9]: ~30%; ROt1/2 [9]: < 1 min; Kb [10, 19]: 1.1 nM; Kb [10, 20]: 1.6 nM
4 | – | – | – | – | surmountable | surmountable antagonism | ~50% | – | COc1ccccc1Oc1c(NS(=O)(=O)c2ccc(C(C)(C)C)cc2)nc(-c2ncccn2)nc1OCCO [bosentan] | proportion of receptors dissociated from within the first 30 seconds [9]: ~50%; ROt1/2 [9]: < 1 min
5 | – | – | – | – | – | – | – | – | COC(=O)[C@H](c1ccccc1Cl)N1CCc2sccc2C1 [clopidogrel] | binding mode [11]: irreversible binding
6 | – | – | – | – | – | – | – | – | CCCCc1nc(Cl)c(CO)n1Cc1ccc(-c2ccccc2-c2nn[nH]n2)cc1 [losartan] | shorter ROt1/2 compared to candesartan and olmesartan [12]: 15–25 fold
7 | – | 0.86 | – | 0.14 | insurmountable | surmountable antagonism | no surmountable behavior | – | CCCNS(=O)(=O)Nc1ncnc(OCCOc2ncc(Br)cn2)c1-c1ccc(Br)cc1 [macitentan] | Ki [6, 16]: 0.17 nM; Ki [6, 17]: 0.093 nM; increase in ROt1/2 compared to ambrisentan and bosentan [7]: ~15 fold; receptor occupancy half-life (ROt1/2) [7]: 1020 s; loss in potency after washout ([7]; over 60 min after washout): 13 fold; mode of antagonism, IP1 accumulation ([8]; 20 min ET-1 stimulation, listed as Macitentan): insurmountable antagonism; mode of antagonism, second sustained phase of calcium elevation ([9]; AUC 3–23 min after ET-1): insurmountable; Kb [10, 19]: 0.74 nM; Kb [10, 20]: 1.4 nM
8 | 20 | 2.9 | 4.2 | 4.2 | – | – | – | 4.47 | Cc1cc2c(cc1CC(=O)c1sccc1S(=O)(=O)Nc1onc(C)c1Cl)OCO2 [sitaxentan] | –
9 | 0.26 | 0.042 | 0.01 | 0.01 | – | – | – | 0.0005 | COc1ccccc1Oc1c(NS(=O)(=O)c2ccc(C(C)C)cn2)nc(-c2ccnc(-c3nnn[nH]3)c2)nc1OCCO [tezosentan] | –

Row | SMILES | Kb [1] [nM] | Kb [2, 14] [nM] | Kb [2, 15] [nM] | Kb [2, 18] [nM] | mode of antagonism, IP1 accumulation ([8]; 20 min ET-1 stimulation) | mode of antagonism, IP1 accumulation ([8]; 90 min ET-1 stimulation) | proportion of ET-1-induced signal with surmountable mode of antagonism [9] | Kb [13] [µM] | other results
10 | COc1nc(C)cnc1NS(=O)(=O)c1cccnc1-c1ccc(-c2nnco2)cc1 [zibotentan] | – | – | – | – | – | – | – | 4.39 | –
